Earlier results in patent publication US20130216646A1, “Nanoparticles of Nutritional and Pharmaceutical Compounds” (priority 2011, published 2013).
Like-named read-outs stand apart in the source and are kept apart here.

Columns and labels:
[1] = in vivo
[2] = for Sojourn time: another study
[3] = dogs

[Ca+2] [calcium]
Share of overall calcium absorption accounted for by the small intestine [1]: about 90%
Transit half-time ([2]; rat duodenum): 6 min
Sojourn time ([2]; rat duodenum): 2.2 min
Transit half-time ([2]; rat ileum): 102 min
Sojourn time ([2]; rat ileum): 121.5 min
Share of calcium absorption occurring in the duodenum [3]: 4%
Share of calcium absorption occurring in the ileum [3]: 80%
Share of calcium absorption occurring in the jejunum [3]: 16%
Share of calcium absorption occurring in the duodenum (rat intestine, another study): 7%
Share of calcium absorption occurring in the ileum (rat intestine, another study): 65%
Share of calcium absorption occurring in the jejunum (rat intestine, another study): 17%
Share of calcium absorption occurring in the duodenum (rat small intestine, one study): 8%
Share of calcium absorption occurring in the ileum (rat small intestine, one study): 88%
Share of calcium absorption occurring in the jejunum (rat small intestine, one study): 4%
